Measurements published in paper PMC7845544 (Frontiers in Pharmacology, 2021).
Where “and” joins values, the source holds several entries; their conditions need not be identical. Identical values can stand only once. Entries after “also recorded” stand apart in the source; their conditions may differ. Like-named read-outs stand apart in the source and are kept apart here.

What was measured:
[1] = target: T1, hTSHR (Homo sapiens, UniProt P16473); assay: cAMP (HTRF) in CHO cells transfected with hTSHR; format: cell-based; settings: for Ratio of EC50 TSHR/FSHR: CHO assays; for EC50: compounds in presence of EC20 ligand (Figure 1 legend); for EC50 / % Response, CHO-hTSHR: mean ± SEM; for % Response, CHO-hTSHR: maximal cAMP vs maximal response of TSH
T1 construct: expressed in transfected cells
Method: Chinese hamster ovary (CHO) cells transfected with hFSHR, hLHR or hTSHR were grown as described previously ([Kelton et al., 1992]; [Persani et al., 1993]; [Yu et al., 2014]). In brief, CHO-hFSHR and CHO-hTSHR were maintained in DMEM/F12 + 10% FBS in T150 culture flasks. The cells were cultured until they reached 70–80% confluence (three days) and were then used for assays or passaged. CHO-hLHR ([van de Lagemaat et al., 2009]; [Sriraman et al., 2014]) was cultured in MEM alpha (++) +10% FBS and G418, and passaged every three days. CHO-hFSHR or −hLHR or −hTSR cells (2,500/well) were plated in 5 µL of phenol red free DMEM/F12 + 1% FBS in 384 well solid white low volume plates (Greiner 784075) by Multidrop. […] The plates were incubated at 37°C for 1 h. After the incubation period, cAMP was measured by HTRF® (homogeneous time-resolved fluorescence) assay (CisBio, Bedford, MA). In brief, conditioned media were incubated with cryptate-labeled cAMP antibody and d2-labeled cAMP in lysis buffer for 1 h. Free cAMP produced by cells competes with cAMP-d2 for binding to the anti-cAMP cryptate. An increase in cellular cAMP leads to a decrease in fluorescence resonance energy transfer, which is detectable as a decrease in the emission at 665 nm, measured by Envision fluorescence reader (PerkinElmer, Waltham, MA). The readout was calculated fluorescence ratio (665/620 nm). Values given in percent (%) indicate the percent response at a certain concentration of agonist relative to the maximum response of the protein ligand standard.

[2] = system: rat granulosa cells; assay: Rat granulosa cell assay measuring secreted estradiol; format: cell-based; settings: for % Response, estradiol, +EC20 FSH / EC50 / % Response, estradiol, No FSH: 24 h, mean ± SEM; for fold improvement of EC50 for estradiol production by low concentration of rec-hFSH: rec-hFSH 0.2 pM
Method: All animals were maintained and handled under IACUC approved procedures at the respective institutions providing contracted service for TocopheRx, following procedures previously approved by local (MA, United States) IACUC reviews ([Sriraman et al., 2014]; [Yu et al., 2014]). Ovarian follicular granulosa cells were isolated from rats implanted with DES pellets (1 mg/day; 7-days release) at ChemPartner (Shanghai, China). The pellets were implanted subcutaneously on 22 day old rats with trochar, employing aseptic techniques after isoflurane anesthesia. Animals were euthanized on post-op day 3, ovaries were excised, cleaned, and granulosa cells were isolated by repeated disruption of the follicle as described previously. Granulosa cells isolated from four to five rats were used to culture one 96-well plate and an equal number of cells was plated in each well. The cells were cultured overnight at 37°C in media containing 5% FBS.
After overnight culture, the media was replaced with serum free media containing 0.1% BSA and 100 nM androstenedione. […] After 24 h of treatment, supernatant was collected and estradiol concentration was determined by ELISA (DRG, Mountainside, NJ, United States). The optical densities of the estradiol ELISA were measured by Spectramax (Sunnyvale, CA, United States). The values were analyzed in Microsoft Excel and Graphpad Prism (San Diego, CA, United States).

[3] = system: rat Leydig cells; assay: Testosterone production from rat primary Leydig cells; format: cell-based; settings: 3 h incubation
Method: Testes were obtained from 21 day old male SD rats, decapsulated into DMEM/F12 media, placed into a spinner flask containing pre-warmed 25 ml digestion media (DMEM/F12 no phenol red + 1 mg/ml Collagenase), and stirred at 37°C in 5% CO2 incubator for 10–15 min ([Hedger et al., 1990]). The digestion supernatant was passed through a 70 um cell strainer into a 50 ml tube, and the digestion was stopped with 0.1% BSA + 0.1 mg/ml trypsin soybean inhibitor) in 50 ml. The digested cells were centrifuged at 800 rpm for 5 min, the supernatant discarded and the cell pellet resuspend in 1 ml assay buffer (DMEM/F12 no phenol red +0.1% BSA) per paired testes. The cells were counted and diluted to 5 × 10^6 cells/ml, and 50 ul of this cell suspension was added to each well of a 96-well plate. Testes obtained from five 21 day old rats generally yielded 1 × 10^8 cells. […] At the end of incubation, media was collected and testosterone measured by ELISA (EIA‐1559, DRG).

[4] = target: CYP3A4 (Homo sapiens, UniProt P08684); assay: CYP time dependent inhibition; format: in vitro ADME
[5] = Rat pharmacokinetics; format: in vivo; settings: for Rat PK %F: oral bioavailability
Method: […] Blood samples were collected at serial time points from 5 min to 24 h. The circulating concentrations of the compound in plasma samples were analyzed by HPLC. PK parameters were determined with Phoenix WinNonlin software (Pharsight Corporation, Sunnyvale, CA, United States) using a non-compartmental model.

[6] = mouse, microsomes
[7] = system: PDE isoforms; assay: Phosphodiesterase (PDE) profile (Eurofins); format: biochemical; settings: 9 isoforms PDE
[8] = system: 211 kinases; assay: Kinase profile (Eurofins); format: biochemical
[9] = system: 55 targets; assay: Single concentration Cerep profile (Eurofins); format: binding; settings: 10 uM
[10] = +EC20 FSH, read-out: EC50 (M), estradiol, +EC20 FSH
[11] = No FSH, read-out: EC50 (M), estradiol, No FSH

T1 sequence (P16473 21-764): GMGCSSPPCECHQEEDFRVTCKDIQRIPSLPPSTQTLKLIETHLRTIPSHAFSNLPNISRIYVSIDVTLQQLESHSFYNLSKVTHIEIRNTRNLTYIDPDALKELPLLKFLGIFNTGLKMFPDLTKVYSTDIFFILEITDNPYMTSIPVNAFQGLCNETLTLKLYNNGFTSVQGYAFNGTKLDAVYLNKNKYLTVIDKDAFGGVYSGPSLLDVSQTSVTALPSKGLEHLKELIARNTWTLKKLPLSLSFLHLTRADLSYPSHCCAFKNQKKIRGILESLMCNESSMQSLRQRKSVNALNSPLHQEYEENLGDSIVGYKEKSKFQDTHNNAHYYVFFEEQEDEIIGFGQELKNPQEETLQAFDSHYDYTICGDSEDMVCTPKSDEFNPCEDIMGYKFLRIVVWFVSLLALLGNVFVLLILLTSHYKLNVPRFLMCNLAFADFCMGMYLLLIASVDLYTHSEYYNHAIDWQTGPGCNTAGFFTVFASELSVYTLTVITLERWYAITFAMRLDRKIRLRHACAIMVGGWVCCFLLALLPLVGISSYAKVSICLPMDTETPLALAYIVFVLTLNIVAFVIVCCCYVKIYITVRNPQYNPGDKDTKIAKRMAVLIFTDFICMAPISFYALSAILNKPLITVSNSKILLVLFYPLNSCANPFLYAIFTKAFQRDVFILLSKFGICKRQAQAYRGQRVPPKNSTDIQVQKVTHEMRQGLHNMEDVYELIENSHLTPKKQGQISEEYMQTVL
CYP3A4, sequence (P08684 whole entry): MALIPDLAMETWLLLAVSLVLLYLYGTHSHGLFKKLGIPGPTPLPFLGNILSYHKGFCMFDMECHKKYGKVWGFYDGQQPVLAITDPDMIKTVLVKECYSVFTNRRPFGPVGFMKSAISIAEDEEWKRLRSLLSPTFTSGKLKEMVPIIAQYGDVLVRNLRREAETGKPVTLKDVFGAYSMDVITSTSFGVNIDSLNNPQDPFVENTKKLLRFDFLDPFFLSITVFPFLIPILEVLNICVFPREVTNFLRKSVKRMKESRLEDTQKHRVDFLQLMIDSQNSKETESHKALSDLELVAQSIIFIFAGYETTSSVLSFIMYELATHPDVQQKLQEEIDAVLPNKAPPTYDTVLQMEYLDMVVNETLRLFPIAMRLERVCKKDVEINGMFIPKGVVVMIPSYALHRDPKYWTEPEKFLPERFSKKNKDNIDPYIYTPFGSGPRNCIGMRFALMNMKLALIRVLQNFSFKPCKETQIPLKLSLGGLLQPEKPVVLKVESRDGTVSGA

Structure (SMILES)	Ratio of EC50 TSHR/FSHR [1]	EC50 [1]	% Response, CHO-hTSHR [1]	% Response, estradiol, +EC20 FSH ([2]; +EC20 FSH)	EC50 [2, 10]	% Response, estradiol, No FSH ([2]; No FSH)	EC50 [2, 11]	fold improvement of EC50 for estradiol production by low concentration of rec-hFSH [2]	testosterone production from cultured rat Leydig cells [3]	CYP TDI (3A4) [4]	Clint, mice [6]	other results
COc1cc(C(N)=O)cc(-c2cc3c(cc2OC)OCc2c(C(=O)N(C)C(C)(C)C)nn(-c4cc(Cl)cc(Cl)c4)c2-3)n1 [TOP5668]	77	170 nM	92.28 ± 0.88%	117 ± 8%	7.33e-08 M	93%	1.82e-07 M	2 fold	very little activity	Negative	10 µl/min/mg protein	fold more potent than TOP5300, rat granulosa cells ([2]; estradiol production): 5 fold; fold lower exposure than TOP5300 ([5]; mature rat pharmacokinetic models): 3-4 fold; Rat PK AUC ([5]; 5 mg/kg): 1,530 ng*h/ml; Rat PK Cmax ([5]; 5 mg/kg): 132 ng/mL; Rat PK T1/2 ([5]; 5 mg/kg): 2.4 h; Rat PK %F ([5]; 5 mg/kg): 5% and 5.4%
COc1cc2c(cc1-c1cnn(CCO)c1)-c1c(c(C(=O)N(C)C(C)(C)C)nn1-c1cc(Cl)cc(Cl)c1)CO2 [TOP5300]	52	505 nM	84.97 ± 0.85%	125 ± 12%	1.75e-07 M	65 ± 6%	8.68e-07 M	2 fold	stimulated concentration-dependent increases in testosterone production	Negative	19 µl/min/mg protein	Rat PK AUC ([5]; 10 mg/kg): 2,655 ng*h/ml; Rat PK Cmax ([5]; 10 mg/kg): 237 ng/mL; Rat PK T1/2 ([5]; 10 mg/kg): 5.1 h; Rat PK %F ([5]; 10 mg/kg): 20%; PDE profile @ 10 uM [7]: N o si g ni fi cant i nhi bi ti on any; Kinase profile @ 10 uM [8]: N o si g ni fi cant i nhi bi ti on any; also recorded: failed to inhibit activity; number of targets < 60% inhibition [9]: 52 targets; number of targets > 60% inhibition [9]: 3 targets
